Measured values: patent US10759783B2, “Biaryl inhibitors of Bruton'S tyrosine kinase” (BIOGEN MA INC., priority 2013, dated 2020)

biological target: T1, BTK enzyme (Homo sapiens, UniProt Q06187); assay: In vitro BTK kinase assay: BTK-POLYGAT-LS assay; type: biochemical; conditions: ATP 10 μM, read-out: IC50 (10uMATP)
T1 construct: purchased Upstate 14-552
Description: The purpose of the BTK in vitro assay is to determine compound potency against BTK through the measurement of IC50. […] For a typical assay, a 24 μL aliquot of a ATP/peptide master mix (final concentration; ATP 10 μM, polyGAT 100 nM) in kinase buffer (10 mM Tris-HCl pH 7.5, 10 mM MgCl2, 200 μM Na3PO4, 5 mM DTT, 0.01% Triton X-100, and 0.2 mg/ml casein) is added to each well. […] The assay is incubated for 30 minutes before being stopped with 28 μL of a 50 mM EDTA solution. […] The plate is covered and incubated for 45 minutes at room temperature.

T1 sequence (Q06187 whole entry): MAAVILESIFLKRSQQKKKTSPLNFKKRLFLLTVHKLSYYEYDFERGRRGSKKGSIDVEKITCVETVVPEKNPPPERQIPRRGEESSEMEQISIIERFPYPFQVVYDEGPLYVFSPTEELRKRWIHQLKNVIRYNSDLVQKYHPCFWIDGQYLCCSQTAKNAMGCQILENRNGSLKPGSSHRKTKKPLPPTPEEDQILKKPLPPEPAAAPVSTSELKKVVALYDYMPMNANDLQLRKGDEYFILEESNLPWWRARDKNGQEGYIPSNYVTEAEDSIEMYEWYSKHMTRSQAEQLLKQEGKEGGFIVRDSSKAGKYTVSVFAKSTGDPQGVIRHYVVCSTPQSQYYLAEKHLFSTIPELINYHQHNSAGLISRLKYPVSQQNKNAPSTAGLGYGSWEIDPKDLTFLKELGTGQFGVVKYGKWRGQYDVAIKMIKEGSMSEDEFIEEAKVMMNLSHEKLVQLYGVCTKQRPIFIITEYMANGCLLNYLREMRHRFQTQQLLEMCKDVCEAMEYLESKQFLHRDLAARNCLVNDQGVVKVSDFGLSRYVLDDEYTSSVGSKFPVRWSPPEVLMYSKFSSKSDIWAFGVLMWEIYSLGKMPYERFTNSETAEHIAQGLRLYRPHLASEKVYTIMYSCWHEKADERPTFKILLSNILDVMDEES

Structure (SMILES)	IC50 [nM]
Cc1cc(-c2ccnc(N)n2)ccc1CNC(=O)c1cc2n(n1)CCCNC2 [Example I-72, N-(4-(2-aminopyrimidin-4-yl)-2-methylbenzyl)-5,6,7,8-tetrahydro-4H-pyrazolo[1,5-a][1,4]diazepine-2-carboxamide]	1000 to 10000
Cc1cc(-c2ccnc(N)n2)ccc1CNC(=O)c1nc2c(s1)CCNCC2 [Example I-73, N-(4-(2-aminopyrimidin-4-yl)-2-methylbenzyl)-5,6,7,8-tetrahydro-4H-thiazolo[4,5-d]azepine-2-carboxamide]	1000 to 10000
Cc1cc(-c2ccnc(N)n2)ccc1CNC(=O)c1cn2c(n1)CNCC2 [Example I-74, N-(4-(2-aminopyrimidin-4-yl)-2-methylbenzyl)-5,6,7,8-tetrahydroimidazo[1,2-a]pyrazine-2-carboxamide]	1000 to 10000
Cc1cc(-c2ccnc(N)n2)ccc1CNC(=O)c1nc2c(s1)CNCC2 [Example I-75, N-(4-(2-aminopyrimidin-4-yl)-2-methylbenzyl)-4,5,6,7-tetrahydrothiazolo[5,4-c]pyridine-2-carboxamide]	1000 to 10000
Cc1cc(-c2ccnc(N)n2)ccc1CNC(=O)c1cc2n(n1)CCNC2 [Example I-76, N-(4-(2-aminopyrimidin-4-yl)-2-methylbenzyl)-4,5,6,7-tetrahydro pyrazolo[1,5-a]pyrazine-2-carboxamide]	> 10000
Cc1cc(-c2ccnc(N)n2)ccc1CNC(=O)c1ccc2c(c1)CCNC2 [Example I-77, N-(4-(2-aminopyrimidin-4-yl)-2-methylbenzyl)-1,2,3,4-tetrahydroisoquinoline-6-carboxamide]	1000 to 10000
Cc1cc(-c2ccnc(N)n2)ccc1CNC(=O)c1ccc2c(n1)CCNC2 [Example I-78, N-(4-(2-aminopyrimidin-4-yl)-2-methylbenzyl)-5,6,7,8-tetrahydro-1,6-naphthyridine-2-carboxamide]	> 10000
Cc1cc(-c2ccnc(N)n2)ccc1CNC(=O)[C@@H]1CC[C@@H]2CNCCN2C1 [Example I-79, (7R,9aR)—N-(4-(2-aminopyrimidin-4-yl)-2-methylbenzyl)octahydro-1H-pyrido[1,2-a]pyrazine-7-carboxamide]	1000 to 10000
Cc1cc(-c2ccnc(N)n2)ccc1CNC(=O)c1cnn(C)c1 [Example I-80, N-(4-(2-aminopyrimidin-4-yl)-2-methylbenzyl)-1-methyl-1H-pyrazole-4-carboxamide]	1000 to 10000
Cc1cc(-c2ccnc(N)n2)ccc1CNC(=O)C1CC2CNCC2C1 (stereo not shown) [Example I-81, N-(4-(2-aminopyrimidin-4-yl)-2-methylbenzyl)octahydrocyclopenta[c]pyrrole-5-carboxamide]	1000 to 10000
Cc1cc(-c2ccnc(N)n2)ccc1CNC(=O)c1cc2c(s1)CNCC2 [Example I-82, N-(4-(2-aminopyrimidin-4-yl)-2-methylbenzyl)-4,5,6,7-tetrahydrothieno[2,3-c]pyridine-2-carboxamide]	100 to 999
Cc1cc(-c2ccnc(N)n2)ccc1CNC(=O)c1cnc(C(F)(F)F)s1 [Example I-83, N-(4-(2-aminopyrimidin-4-yl)-2-methylbenzyl)-2-(trifluoromethyl)thiazole-5-carboxamide]	100 to 999
Cc1cc(-c2ccnc(N)n2)ccc1CNC(=O)c1cncs1 [Example I-84, N-(4-(2-aminopyrimidin-4-yl)-2-methylbenzyl)thiazole-5-carboxamide]	1000 to 10000
Cc1cc(-c2ccnc(N)n2)ccc1CNC(=O)c1cnc(C(C)C)s1 [Example I-86, N-(4-(2-aminopyrimidin-4-yl)-2-methylbenzyl)-2-isopropylthiazole-5-carboxamide]	10 to 99
COC(C)c1ncc(C(=O)NCc2ccc(-c3ccnc(N)n3)cc2C)s1 (stereo not shown) [Example I-87, N-(4-(2-aminopyrimidin-4-yl)-2-methylbenzyl)-2-(1-methoxyethyl)thiazole-5-carboxamide]	100 to 999
Cc1cc(-c2ccnc(N)n2)ccc1C(C)NC(=O)c1cnc(C(F)(F)F)s1 (stereo not shown) [Example I-107, N-(1-(4-(2-aminopyrimidin-4-yl)-2-methylphenyl)ethyl)-2-(trifluoromethyl)thiazole-5-carboxamide]	1000 to 10000

Other lines, results leading:

IC50 [nM]	Structure (SMILES)
10 to 99	Cc1cc(-c2cc(Nc3nnn(C)n3)ncn2)ccc1CNC(=O)c1cnc(C(C)(C)C)s1 [Example I-68, 2-(tert-butyl)-N-(2-methyl-4-(6-((2-methyl-2H-tetrazol-5-yl)amino)pyrimidin-4-yl)benzyl)thiazole-5-carboxamide]
10 to 99	Cc1cc(-c2ccnc(NC(=O)C3CCN(C)CC3)c2)ccc1CNC(=O)c1cnc(C(C)(C)C)s1 [Example I-71, 2-(tert-butyl)-N-(2-methyl-4-(2-(1-methylpiperidine-4-carboxamido)pyridin-4-yl)benzyl)thiazole-5-carboxamide]
10 to 99	Cc1cc(-c2ccnc(N)n2)ccc1CNC(=O)c1cnc(C2CC2)s1 [Example I-85, N-(4-(2-aminopyrimidin-4-yl)-2-methylbenzyl)-2-cyclopropylthiazole-5-carboxamide]
100 to 999	Cc1cc(-c2ccnc(N)n2)ccc1CNC(=O)c1cnc(C2CCCO2)s1 (stereo not shown) [Example I-88, N-(4-(2-aminopyrimidin-4-yl)-2-methylbenzyl)-2-(tetrahydrofuran-2-yl)thiazole-5-carboxamide]
10 to 99	Cn1cc(Nc2nccc(-c3ccc4c(c3)CCC4NC(=O)c3cnc(C(C)(C)C)s3)n2)cn1 (stereo not shown) [Example I-90, 2-(tert-butyl)-N-(5-(2-((1-methyl-1H-pyrazol-4-yl)amino)pyrimidin-4-yl)-2,3-dihydro-1H-inden-1-yl)thiazole-5-carboxamide]
10 to 99	Cn1cc(Nc2cc(-c3ccc4c(c3)CCCC4NC(=O)c3cnc(C(C)(C)C)s3)ncn2)cn1 (stereo not shown) [Example I-92, 2-(tert-butyl)-N-(6-(6-((1-methyl-1H-pyrazol-4-yl)amino)pyrimidin-4-yl)-1,2,3,4-tetrahydronaphthalen-1-yl)thiazole-5-carboxamide]
10 to 99	CC(C)(C)c1ncc(C(=O)NC2CCCc3cc(-c4cc(Nc5cn[nH]c5)ncn4)ccc32)s1 (stereo not shown) [Example I-93, N-(6-(6-((1H-pyrazol-4-yl)amino)pyrimidin-4-yl)-1,2,3,4-tetrahydronaphthalen-1-yl)-2-(tert-butyl)thiazole-5-carboxamide]
100 to 999	Cn1cc(Nc2cc(-c3ccc4c(c3)CCCC4NC(=O)c3cc4c(s3)CCOC4)ncn2)cn1 (stereo not shown) [Example I-94, N-(6-(6-((1-methyl-1H-pyrazol-4-yl)amino)pyrimidin-4-yl)-1,2,3,4-tetrahydronaphthalen-1-yl)-6,7-dihydro-4H-thieno[3,2-c]pyran-2-carboxamide]
10 to 99	CN1CCN(c2ccc(Nc3nccc(-c4ccc5c(c4)CCCC5NC(=O)c4cnc(C(C)(C)C)s4)n3)nc2)CC1 (stereo not shown) [Example I-96, 2-(tert-butyl)-N-(6-(2-((5-(4-methylpiperazin-1-yl)pyridin-2-yl)amino)pyrimidin-4-yl)-1,2,3,4-tetrahydronaphthalen-1-yl)thiazole-5-carboxamide]
< 10	Cn1cc(Nc2nccc(-c3ccc4c(c3)OCCC4NC(=O)c3cnc(C(C)(C)C)s3)n2)cn1 (stereo not shown) [Example I-97, 2-(tert-butyl)-N-(7-(2-((1-methyl-1H-pyrazol-4-yl)amino)pyrimidin-4-yl)chroman-4-yl)thiazole-5-carboxamide]
10 to 99	Cn1cc(Nc2nccc(-c3ccc4c(c3)COCC4NC(=O)c3cnc(C(C)(C)C)s3)n2)cn1 (stereo not shown) [Example I-98, 2-(tert-butyl)-N-(7-(2-((1-methyl-1H-pyrazol-4-yl)amino)pyrimidin-4-yl)isochroman-4-yl)thiazole-5-carboxamide]
10 to 99	Cc1cc(-c2ccnc(Nc3cnn(C)c3)n2)cnc1CNC(=O)c1cnc(C(C)(C)C)s1 [Example I-100, 2-(tert-butyl)-N-((3-methyl-5-(2-((1-methyl-1H-pyrazol-4-yl)amino)pyrimidin-4-yl)pyridin-2-yl)methyl)thiazole-5-carboxamide]
10 to 99	Cc1cc(-c2ccnc(Nc3cnn(C)c3)n2)cnc1CNC(=O)c1cc2c(s1)CCOC2 [Example I-101, N-((3-methyl-5-(2-((1-methyl-1H-pyrazol-4-yl)amino)pyrimidin-4-yl)pyridin-2-yl)methyl)-6,7-dihydro-4H-thieno[3,2-c]pyran-2-carboxamide]
10 to 99	Cc1nc(-c2ccnc(Nc3cnn(C)c3)c2)ccc1CNC(=O)c1cnc(C(C)(C)C)s1 [Example I-102, 2-(tert-butyl)-N-((6-methyl-2′-((1-methyl-1H-pyrazol-4-yl)amino)-[2,4′-bipyridin]-5-yl)methyl)thiazole-5-carboxamide]
10 to 99	Cc1nc(-c2ccnc(Nc3cnn(C)c3)n2)ccc1CNC(=O)c1cnc(C(C)(C)C)s1 [Example I-103, 2-(tert-butyl)-N-((2-methyl-6-(2-((1-methyl-1H-pyrazol-4-yl)amino)pyrimidin-4-yl)pyridin-3-yl)methyl)thiazole-5-carboxamide]
100 to 999	Cc1nc(-c2ccnc(Nc3cnn(C)c3)n2)ccc1CNC(=O)c1cc2c(s1)CCOC2 [Example I-104, N-((2-methyl-6-(2-((1-methyl-1H-pyrazol-4-yl)amino)pyrimidin-4-yl)pyridin-3-yl)methyl)-6,7-dihydro-4H-thieno[3,2-c]pyran-2-carboxamide]
10 to 99	Cc1cc(-c2ccnc(Nc3cnn(C)c3)n2)ccc1C(C)NC(=O)c1cc2c(s1)CCOC2 (stereo not shown) [Example I-105, N-(1-(2-methyl-4-(2-((1-methyl-1H-pyrazol-4-yl)amino)pyrimidin-4-yl)phenyl)ethyl)-6,7-dihydro-4H-thieno[3,2-c]pyran-2-carboxamide]
< 10	Cc1cc(-c2ccnc(Nc3cnn(C)c3)n2)ccc1C(C)NC(=O)c1cnc(C(C)(C)C)s1 (stereo not shown) [Example I-106, 2-(tert-butyl)-N-(1-(2-methyl-4-(2-((1-methyl-1H-pyrazol-4-yl)amino)pyrimidin-4-yl)phenyl)ethyl)thiazole-5-carboxamide]
